# What was measured:
# CCRF-CEM = experiment: NCI screen, growth of human tumor cells: Leukemia CCRF-CEM; assay type: cell-based; settings: CCRF-CEM (Leukemia), 10^−4 molar
# In short: (§1)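 Growth of human tumor cells, expressed as percent, was determined in the NCI screen. Test data list the cancer type and the molar concentration applied.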
# HL-60 (TB) = experiment: NCI screen, growth of human tumor cells: Leukemia HL-60 (TB); assay type: cell-based; settings: HL-60 (TB) (Leukemia), 10^−4 molar
# Experimental: (§2) In the NCI screening process, each compound was tested and described by a minimum of 60 data points. The test data include, but are not limited to the type of cancer, the molar concentration used in the screen, and the percent growth of the cancer. In some cases, NMR and elemental analysis were used for structural assignment.
# K562 = experiment: NCI screen, growth of human tumor cells: Leukemia K562; assay type: cell-based; settings: K562 (Leukemia), 10^−4 molar
# In short: as §1
# MOLT-4 = experiment: NCI screen, growth of human tumor cells: Leukemia MOLT-4; assay type: cell-based; settings: MOLT-4 (Leukemia), 10^−4 molar
# In short: as §1
# RPMI-8226 = experiment: NCI screen, growth of human tumor cells: Leukemia RPMI-8226; assay type: cell-based; settings: RPMI-8226 (Leukemia), 10^−4 molar
# In short: as §1
# AS49/ATCC = experiment: NCI screen, growth of human tumor cells: Non-Small Cell Lung AS49/ATCC; assay type: cell-based; settings: AS49/ATCC (Non-Small Cell Lung), 10^−4 molar
# In short: as §1
# HOP-62 = experiment: NCI screen, growth of human tumor cells: Non-Small Cell Lung HOP-62; assay type: cell-based; settings: HOP-62 (Non-Small Cell Lung), 10^−4 molar
# In short: as §1
# NCI-H522 = experiment: NCI screen, growth of human tumor cells: Non-Small Cell Lung NCI-H522; assay type: cell-based; settings: NCI-H522 (Non-Small Cell Lung), 10^−4 molar
# In short: as §1
# NCI-H460 = experiment: NCI screen, growth of human tumor cells: Non-Small Cell Lung NCI-H460; assay type: cell-based
# In short: as §1
# HCT-116 = experiment: NCI screen, growth of human tumor cells: Colon Cancer HCT-116; assay type: cell-based; settings: HCT-116 (Colon Cancer), 10^−4 molar
# In short: as §1
# HCT-15 = experiment: NCI screen, growth of human tumor cells: Colon Cancer HCT-15; assay type: cell-based; settings: HCT-15 (Colon Cancer), 10^−4 molar
# In short: as §1
# HT29 = experiment: NCI screen, growth of human tumor cells: Colon Cancer HT29; assay type: cell-based; settings: HT29 (Colon Cancer), 10^−4 molar
# In short: as §1
# KM12 = experiment: NCI screen, growth of human tumor cells: Colon Cancer KM12; assay type: cell-based; settings: KM12 (Colon Cancer), 10^−4 molar
# In short: as §1
# SF-268 = experiment: NCI screen, growth of human tumor cells: CNS Cancer SF-268; assay type: cell-based; settings: SF-268 (CNS Cancer), 10^−4 molar
# In short: as §1
# SF-295 = experiment: NCI screen, growth of human tumor cells: CNS Cancer SF-295; assay type: cell-based; settings: SF-295 (CNS Cancer), 10^−4 molar
# In short: as §1
# SF-539 = experiment: NCI screen, growth of human tumor cells: CNS Cancer SF-539; assay type: cell-based; settings: SF-539 (CNS Cancer), 10^−4 molar
# In short: as §1
# SNB-75 = experiment: NCI screen, growth of human tumor cells: CNS Cancer SNB-75; assay type: cell-based
# In short: as §1
# LOXIMVI = experiment: NCI screen, growth of human tumor cells: Melanoma LOXIMVI; assay type: cell-based; settings: LOXIMVI (Melanoma), 10^−4 molar
# In short: as §1
# M14 = experiment: NCI screen, growth of human tumor cells: Melanoma M14; assay type: cell-based; settings: M14 (Melanoma), 10^−4 molar
# In short: as §1
# SK-MEL-5 = experiment: NCI screen, growth of human tumor cells: Melanoma SK-MEL-5; assay type: cell-based; settings: SK-MEL-5 (Melanoma), 10^−4 molar
# In short: as §1
# UACC-257 = experiment: NCI screen, growth of human tumor cells: Melanoma UACC-257; assay type: cell-based; settings: UACC-257 (Melanoma), 10^−4 molar
# In short: as §1
# UACC-62 = experiment: NCI screen, growth of human tumor cells: Melanoma UACC-62; assay type: cell-based; settings: UACC-62 (Melanoma), 10^−4 molar
# In short: as §1
# IGROVI = experiment: NCI screen, growth of human tumor cells: Ovarian Cancer IGROVI; assay type: cell-based; settings: IGROVI (Ovarian Cancer), 10^−4 molar
# In short: as §1
# SK-OV-3 = experiment: NCI screen, growth of human tumor cells: Ovarian Cancer SK-OV-3; assay type: cell-based; settings: SK-OV-3 (Ovarian Cancer), 10^−4 molar
# In short: as §1
# OVCAR-3 = experiment: NCI screen, growth of human tumor cells: Ovarian Cancer OVCAR-3; assay type: cell-based; settings: OVCAR-3 (Ovarian Cancer), 10^−4 molar
# In short: as §1
# OVCAR-4 = experiment: NCI screen, growth of human tumor cells: Ovarian Cancer OVCAR-4; assay type: cell-based; settings: OVCAR-4 (Ovarian Cancer), 10^−4 molar
# In short: as §1
# OVCAR-8 = experiment: NCI screen, growth of human tumor cells: Ovarian Cancer OVCAR-8; assay type: cell-based; settings: OVCAR-8 (Ovarian Cancer), 10^−4 molar
# In short: as §1
# 786-0 = experiment: NCI screen, growth of human tumor cells: Renal Cancer 786-0; assay type: cell-based; settings: 786-0 (Renal Cancer), 10^−4 molar
# In short: as §1
# ACHN = experiment: NCI screen, growth of human tumor cells: Renal Cancer ACHN; assay type: cell-based; settings: ACHN (Renal Cancer), 10^−4 molar
# In short: as §1
# RXF-393 = experiment: NCI screen, growth of human tumor cells: Renal Cancer RXF-393; assay type: cell-based; settings: RXF-393 (Renal Cancer), 10^−4 molar
# In short: as §1
# SN12C = experiment: NCI screen, growth of human tumor cells: Renal Cancer SN12C; assay type: cell-based; settings: SN12C (Renal Cancer), 10^−4 molar
# In short: as §1
# CAKI-1 = experiment: NCI screen, growth of human tumor cells: Renal Cancer CAKI-1; assay type: cell-based; settings: CAKI-1 (Renal Cancer), 10^−4 molar
# In short: as §1
# UO-31 = experiment: NCI screen, growth of human tumor cells: Renal Cancer UO-31; assay type: cell-based; settings: UO-31 (Renal Cancer), 10^−4 molar
# In short: as §1
# DU-145 = experiment: NCI screen, growth of human tumor cells: Prostate Cancer DU-145; assay type: cell-based; settings: DU-145 (Prostate Cancer), 10^−4 molar
# In short: as §1
# MCF 7 = experiment: NCI screen, growth of human tumor cells: Breast Cancer MCF 7; assay type: cell-based; settings: MCF 7 (Breast Cancer), 10^−4 molar
# In short: as §1
# MCF7/ADR-RES = experiment: NCI screen, growth of human tumor cells: Breast Cancer MCF7/ADR-RES; assay type: cell-based; settings: MCF7/ADR-RES (Breast Cancer), 10^−4 molar
# In short: as §1
# HS 578T = experiment: NCI screen, growth of human tumor cells: Breast Cancer HS 578T; assay type: cell-based; settings: HS 578T (Breast Cancer), 10^−4 molar
# In short: as §1
# MDA-N = experiment: NCI screen, growth of human tumor cells: Breast Cancer MDA-N; assay type: cell-based; settings: 10^−4 molar
# Experimental: as §2
# human cancer cells = experiment: NCI screen summary over the cancers tested (negative growth of human cancer cells); assay type: cell-based; settings: 10^−4 M conc.; cancers with negative growth / cancers tested
# Experimental: as §2
# The derivatives in the tables are grouped using the same category as in the tables 1-6.
compound,measurement,setting,value
"O=S1(=O)OCCOS(=O)(=O)C1C1c2ccccc2-c2ccccc21 [NSC 686562, ethylene 9-fluorenylmethanedisulfonate]",percent of growth of human tumor cells,CCRF-CEM,−3%
same,percent of growth of human tumor cells,HL-60 (TB),−20%
same,percent of growth of human tumor cells,K562,16%
same,percent of growth of human tumor cells,MOLT-4,−32%
same,percent of growth of human tumor cells,RPMI-8226,9%
same,percent of growth of human tumor cells,AS49/ATCC,30%
same,percent of growth of human tumor cells,HOP-62,5%
same,percent of growth of human tumor cells,NCI-H522,−19%
same,% Growth,"NCI-H460; NCI-H460, 10^−4 molar",−50%
same,% Growth,"NCI-H460; NCI-H460, 10^−5 molar",56%
same,percent of growth of human tumor cells,HCT-116,0%
same,percent of growth of human tumor cells,HCT-15,15%
same,percent of growth of human tumor cells,HT29,26%
same,percent of growth of human tumor cells,KM12,22%
same,percent of growth of human tumor cells,SF-268,29%
same,percent of growth of human tumor cells,SF-295,22%
same,percent of growth of human tumor cells,SF-539,10%
same,% Growth,"SNB-75; SNB-75, 10^−4 molar",−28%
same,% Growth,"SNB-75; SNB-75, 10^−5 molar",28%
same,% Growth,"SNB-75; SNB-75, 10^−6 molar",64%
same,percent of growth of human tumor cells,LOXIMVI,−27%
same,percent of growth of human tumor cells,M14,23%
same,percent of growth of human tumor cells,SK-MEL-5,4%
same,percent of growth of human tumor cells,UACC-257,28%
same,percent of growth of human tumor cells,UACC-62,10%
same,percent of growth of human tumor cells,IGROVI,16%
same,percent of growth of human tumor cells,SK-OV-3,25%
same,percent of growth of human tumor cells,OVCAR-3,25%
same,percent of growth of human tumor cells,OVCAR-4,−39%
same,percent of growth of human tumor cells,OVCAR-8,29%
same,percent of growth of human tumor cells,786-0,2%
same,percent of growth of human tumor cells,ACHN,9%
same,percent of growth of human tumor cells,RXF-393,25%
same,percent of growth of human tumor cells,SN12C,28%
same,percent of growth of human tumor cells,CAKI-1,−1%
same,percent of growth of human tumor cells,UO-31,−3%
same,percent of growth of human tumor cells,DU-145,9%
same,percent of growth of human tumor cells,MCF 7,23%
same,percent of growth of human tumor cells,MCF7/ADR-RES,−7%
same,percent of growth of human tumor cells,HS 578T,24%
same,percent of growth of human tumor cells,MDA-N,17%
same,Percentage of cancers showing negative growth cancers tested,human cancer cells,10^−4 M conc. = 11/38 = 29%
same,melting point,,118 to 124 °C
